These results are taken from US11541055B2, “Inhibitors of human immunodeficiency virus replication” (ViiV Healthcare UK (No. 5) LIMITED, priority 2018, dated 2023).

A word on the EC50: it is the concentration giving half of the maximal effect. Usually CC50 stands for the concentration at which the toxic effect on the cells reaches its halfway point. A lower CC50 goes with greater toxicity to the cells.

Format in all cases: cell-based
Data set [1] concerns recombinant NL4-3 virus (Renilla luciferase) in MT-2 cells. The experiment in a line: HIV cell culture assay (antiviral activity, luciferase readout). The gist of the method:
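Antiviral EC50 was derived via the median effect equation from luciferase signal. The signal came from MT-2 cultures infected for 4–5 days with a nef-deleted, Renilla luciferase-expressing NL4-3 reporter virus (made in 293T cells) in the presence of compound dilutions.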

The test system of data set [2] is uninfected MT2 cells. The experiment in a line: Compound cytotoxicity, XTT-based colorimetric assay. The following applies: day 4, XTT. An outline of the steps: (§1)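 Run under the antiviral-assay protocol but without virus. Viability was read on day 4 and CC50 values were derived from the readout.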
(Formazan colour is commonly taken as a measure of viable cells.)

Assay in data set [3]: as above
The settings on record: human; uninfected MT2 cells, day 4, XTT. An outline of the steps:
as §1

Structures are written as SMILES. Read-outs that look alike come from different tables or passages of the source.

Take `CC(C)(C)S(=O)(=O)c1cccc(-c2ccc3c(=O)n(-c4ccc(Cl)c5c(NS(=O)(=O)C6CC6)nn(CC(F)F)c45)c([C@H](Cc4cc(F)cc(F)c4)NC(=O)Cn4nc(C(F)F)c5c4C(F)(F)[C@@H]4C[C@H]54)nc3c2)c1` [Example 146, N-[(1S)-1-{3-[4-chloro-3-cyclopropanesulfonamido-1-(2,2-difluoroethyl)-1H-indazol-7-yl]-7-[3-(2-methylpropane-2-sulfonyl)phenyl]-4-oxo-3,4-dihydroquinazolin-2-yl}-2-(3,5-difluorophenyl)ethyl]-2-[(2S,4R)-9-(difluoromethyl)-5,5-difluoro-7,8-diazatricyclo[4.3.0.0^2,^4]nona-1(6),8-dien-7-yl]acetamide]: in data set [1] (MT-2 cells infected for 4-5 days with recombinant NL4-3 Renilla luciferase virus, luciferase activity, read-out: EC50), the 50% effective concentration (EC50) worked out at 0.39 nM. In addition, the cytotoxic concentration (CC50) in data set [2] was over 500 nM.
For `Cn1nc(NS(C)(=O)=O)c2c(Cl)ccc(-n3c([C@H](Cc4cc(F)cc(F)c4)NC(=O)Cn4nc(C(F)F)c5c4C(F)(F)[C@@H]4C[C@H]54)nc4cc(-c5cc(S(C)(=O)=O)ccn5)ccc4c3=O)c21` (atropisomer, axis not shown; (P)) [Example 4, N—((S)-1-((3P)-3-(4-chloro-1-methyl-3-(methylsulfonamido)-1H-indazol-7-yl)-7-(4-(methylsulfonyl)pyridin-2-yl)-4-oxo-3,4-dihydroquinazolin-2-yl)-2-(3,5-difluorophenyl)ethyl)-2-((3bS,4aR)-3-(difluoromethyl)-5,5-difluoro-3b,4,4a,5-tetrahydro-1H-cyclopropa[3,4]cyclopenta[1,2-c]pyrazol-1-yl)acetamide], the EC50 in data set [1] (Renilla, NL43) amounted to 0.053 nM. For the same molecule, the CC50 at 4 days in data set [3] was over 500 nM.
For the molecule `Cc1ncc(-c2ccc3c(=O)n(-c4ccc(Cl)c5c(NS(C)(=O)=O)nn(C)c45)c([C@H](Cc4cc(F)cc(F)c4)NC(=O)Cn4nc(C(F)F)c5c4C(F)(F)[C@@H]4C[C@H]54)nc3c2)s1` (atropisomer, axis not shown; (P)) [Example 26, N—((S)-1-((3P)-3-(4-chloro-1-methyl-3-(methylsulfonamido)-1H-indazol-7-yl)-7-(2-methylthiazol-5-yl)-4-oxo-3,4-dihydroquinazolin-2-yl)-2-(3,5-difluorophenyl)ethyl)-2-((3bS,4aR)-3-(difluoromethyl)-5,5-difluoro-3b,4,4a,5-tetrahydro-1H-cyclopropa[3,4]cyclopenta[1,2-c]pyrazol-1-yl)acetamide], the concentration giving a half-maximal response (EC50) in data set [1] (Renilla, NL43) came out at 0.11 nM. The molecule further registered a CC50 at 4 days in data set [3] of over 500 nM.
With `CS(=O)(=O)Nc1nn(CC(F)(F)F)c2c(-n3c([C@H](Cc4cc(F)cc(F)c4)NC(=O)Cn4nc(C(F)F)c5c4C(F)(F)[C@@H]4C[C@H]54)nc4cc(-c5cccnn5)ccc4c3=O)ccc(Cl)c12` (atropisomer, axis not shown) [Example 107, N-[(1S)-1-{3-[4-chloro-3-methanesulfonamido-1-(2,2,2-trifluoroethyl)-1H-indazol-7-yl]-4-oxo-7-(pyridazin-3-yl)-3,4-dihydroquinazolin-2-yl}-2-(3,5-difluoropheny)ethyl]-2-[(2S,4R)-9-(difluoromethyl)-5,5-difluoro-7,8-diazatricyclo[4.3.0.0^2,^4]nona-1(6),8-dien-7-yl]acetamide], the EC50 in data set [1] (Renilla, NL43) came to 0.048 nM. The molecule also registered a CC50 at 4 days in data set [3] of over 500 nM.
`Cn1nc(NS(C)(=O)=O)c2c(Cl)ccc(-n3c([C@H](Cc4cc(F)cc(F)c4)NC(=O)Cn4nc(C(F)F)c5c4C(F)(F)[C@@H]4C[C@H]54)nc4cc(-c5cccc(S(=O)(=O)C(C)(C)C)c5)ccc4c3=O)c21` (atropisomer, axis not shown; (P)) [Example 33, N—((S)-1-(7-(3-(tert-butylsulfonyl)phenyl)-(3P)-3-(4-chloro-1-methyl-3-(methylsulfonamido)-1H-indazol-7-yl)-4-oxo-3,4-dihydroquinazolin-2-yl)-2-(3,5-difluorophenyl)ethyl)-2-((3bS,4aR)-3-(difluoromethyl)-5,5-difluoro-3b,4,4a,5-tetrahydro-1H-cyclopropa[3,4]cyclopenta[1,2-c]pyrazol-1-yl)acetamide]: the concentration giving a half-maximal response (EC50) in data set [1] (Renilla, NL43) stood at 0.12 nM. In addition, the CC50 at 4 days in data set [3] was over 500 nM.
For the molecule `CCc1cc(C)nc(-c2ccc3c(=O)n(-c4ccc(Cl)c5c(NS(C)(=O)=O)nn(C)c45)c([C@H](Cc4cc(F)cc(F)c4)NC(=O)Cn4nc(C(F)F)c5c4C(F)(F)[C@@H]4C[C@H]54)nc3c2)n1` (atropisomer, axis not shown; (P)) [Example 36, N—((S)-1-((3P)-3-(4-chloro-1-methyl-3-(methylsulfonamido)-1H-indazol-7-yl)-7-(4-ethyl-6-methylpyrimidin-2-yl)-4-oxo-3,4-dihydroquinazolin-2-yl)-2-(3,5-difluorophenyl)ethyl)-2-((3bS,4aR)-3-(difluoromethyl)-5,5-difluoro-3b,4,4a,5-tetrahydro-1H-cyclopropa[3,4]cyclopenta[1,2-c]pyrazol-1-yl)acetamide], in data set [1] (Renilla, NL43), the EC50 came out at 0.087 nM. Also, the 50% cytotoxic concentration (CC50) at 4 days in data set [3] was over 500 nM.
Take `COc1cnc(-c2ccc3c(=O)n(-c4ccc(Cl)c5c(NS(C)(=O)=O)nn(CC(F)(F)F)c45)c([C@H](Cc4cc(F)cc(F)c4)NC(=O)Cn4nc(C(F)F)c5c4C(F)(F)[C@@H]4C[C@H]54)nc3c2)nc1` (atropisomer, axis not shown) [Example 115, N-[(1S)-1-{3-[4-chloro-3-methanesulfonamido-1-(2,2,2-trifluoroethyl)-1H-indazol-7-yl]-7-(5-methoxypyrimidin-2-yl)-4-oxo-3,4-dihydroquinazolin-2-yl}-2-(3,5-difluorophenyl)ethyl]-2-[(2S,4R)-9-(difluoromethyl)-5,5-difluoro-7,8-diazatricyclo[4.3.0.0^2,^4]nona-1(6),8-dien-7-yl]acetamide]: the concentration for a half-maximal effect (EC50) in data set [1] (Renilla, NL43) stood at 0.098 nM. The molecule also showed a 50% cytotoxic concentration (CC50) at 4 days in data set [3] of over 500 nM.
The matching figures for `Cn1nc(NS(C)(=O)=O)c2c(Cl)ccc(-n3c([C@H](Cc4cc(F)cc(F)c4)NC(=O)Cn4nc(C(F)F)c5c4C(F)(F)[C@@H]4C[C@H]54)nc4cc(-c5cc(C(F)(F)F)ccn5)ccc4c3=O)c21` (atropisomer, axis not shown; (P)) [Example 80, N—((S)-1-((3P)-3-(4-chloro-1-methyl-3-(methylsulfonamido)-1H-indazol-7-yl)-4-oxo-7-(4-(trifluoromethyl)pyridin-2-yl)-3,4-dihydroquinazolin-2-yl)-2-(3,5-difluorophenyl)ethyl)-2-((3bS,4aR)-3-(difluoromethyl)-5,5-difluoro-3b,4,4a,5-tetrahydro-1H-cyclopropa[3,4]cyclopenta[1,2-c]pyrazol-1-yl)acetamide]: 0.2 nM and over 100 nM.
Consider `COc1cnc(-c2ccc3c(=O)n(-c4ccc(Cl)c5c(NS(=O)(=O)C6CC6)nn(CC(F)F)c45)c([C@H](Cc4cc(F)cc(F)c4)NC(=O)Cn4nc(C(F)F)c5c4C(F)(F)[C@@H]4C[C@H]54)nc3c2)nc1` (atropisomer, axis not shown) [Example 98, N-[(1S)-1-{3-[4-chloro-3-cyclopropanesulfonamido-1-(2,2-difluoroethyl)-1H-indazol-7-yl]-7-(5-methoxypyrimidin-2-y1)-4-oxo-3,4-dihydroquinazolin-2-yl}-2-(3,5-difluorophenyl)ethyl]-2-[(2S,4R)-9-(difluoromethyl)-5,5-difluoro-7,8-diazatricyclo[4.3.0.0^2,^4]nona-1(6),8-dien-7-yl]acetamide], for which, in data set [1] (Renilla, NL43), the concentration giving a half-maximal response (EC50) stood at 0.16 nM. In addition, the CC50 at 4 days in data set [3] is over 500 nM.
As to `Cc1nc(C)c(C)c(-c2ccc3c(=O)n(-c4ccc(Cl)c5c(NS(=O)(=O)C6CC6)nn(CC(F)F)c45)c([C@H](Cc4cc(F)cc(F)c4)NC(=O)Cn4nc(C(F)F)c5c4C(F)(F)[C@@H]4C[C@H]54)nc3c2)n1` (atropisomer, axis not shown; (P)) [Example 92, N—((S)-1-((3P)-3-(4-chloro-3-(cyclopropanesulfonamido)-1-(2,2-difluoroethyl)-1H-indazol-7-yl)-4-oxo-7-(2,5,6-trimethylpyrimidin-4-yl)-3,4-dihydroquinazolin-2-yl)-2-(3,5-difluorophenyl)ethyl)-2-((3bS,4aR)-3-(difluoromethyl)-5,5-difluoro-3b,4,4a,5-tetrahydro-1H-cyclopropa[3,4]cyclopenta[1,2-c]pyrazol-1-yl)acetamide], the half-maximal effective concentration (EC50) in data set [1] (Renilla, NL43) came out at 0.1 nM. The half-maximal cytotoxic concentration (CC50) at 4 days in data set [3] was over 500 nM.
